Measurements as given in patent US10906929B2, “Phosphoramidate nucleoside derivatives as anticancer agents” (NuCana plc, priority 2016, dated 2021).

Tests used:
KG1 = test: In vitro cytotoxicity, MTS assay; type: cell-based; conditions: Homo sapiens, KG-1, 72 h, read-out: Inhibitory concentration (IC50) KG1
Method: (§1) Cladribine phosphoramidate derivatives were evaluated against six leukaemic cell lines (KG1, U937, K562, NB4R2, NB4 and HL-60) in vitro. Inhibitory concentration (IC50) at which 50% of the cells were no longer viable (calculated using MTS assay) was determined. Cells were treated with Cladribine and its 3′-phosphoramidate derivatives at concentrations between 100 μM and 0.02 μM by serial dilutions and incubated for 72 h at 37° C., 5% CO2 in a final volume of 90 μL. Twenty microliters of MTS reagent (Promega UK Ltd, Southampton, Hants) was added to the tumour cell cultures and reaction incubated for a further 4 h at 37° C., 5% CO2. The absorbance of the reaction after this time was read by spectrophotometry at 490 nm and the percentage of viable cells calculated relative to untreated control cells in the same assay.

K562 = test: In vitro cytotoxicity, MTS assay; type: cell-based; conditions: Homo sapiens, 72 h, read-out: Inhibitory concentration (IC50) K562
Method: as §1

NB4R2 = test: In vitro cytotoxicity, MTS assay; type: cell-based; conditions: 72 h, read-out: Inhibitory concentration (IC50) NB4R2
Method: as §1

NB4 = test: In vitro cytotoxicity, MTS assay; type: cell-based; conditions: Homo sapiens, NB-4, 72 h, read-out: Inhibitory concentration (IC50) NB4
Method: as §1

HL-60 = test: In vitro cytotoxicity, MTS assay; type: cell-based; conditions: Homo sapiens, 72 h, read-out: Inhibitory concentration (IC50) HL-60
Method: as §1

U937 = test: In vitro cytotoxicity, MTS assay; type: cell-based; conditions: Homo sapiens, U-937, 72 h, read-out: Inhibitory concentration (IC50) U937
Method: as §1

[1] = test system: MCF-7 Mammary epithelial adenocarcinoma; test: In vitro viability assay, CellTiterGlo; type: cell-based, human; conditions: for EC50: Homo sapiens, MCF7, 72 h, read-out: EC50 (μM) Ab; for Top Inhibition (%): MCF-7, CellTiterGlo, 72 h
Method: (§2) In vitro viability assay was performed to assess the effects of compounds on cell viability in selected cell lines over 72 h using the CellTiterGlo (CTG, Promega-G7573) assay. The tests were performed in duplicates with treatment of compounds at 9 points, 3.16 folds titration in 96 well plates over ˜72 h. The compound starting concentrations were […]. Cell viability assay using CellTiterGlo in 96-well plate were performed. Compounds were dissolved to 40 mM with thawed 100% DMSO. Compounds were serially diluted at 3.16-fold in thawed DMSO, and warmed to 37° C. before being dissolved in media (2 μl+200 μl). After compounds were dissolved in media, media containing compounds were warmed to 37° C. in incubator and then compounds in media were added to cell plates (50 μl+50 μl) in duplicates. The compounds' final concentrations were from 198 μM to 19.9 nM. Solubility of all compounds was checked and recorded again, then the plates were transferred to CO2 tissue culture incubator immediately and incubated for 3 days. DMSO final concentration is 0.5%.

[2] = test system: HEL92.1.7 Erythroleukaemia; test: In vitro viability assay, CellTiterGlo; type: cell-based; conditions: for Top Inhibition (%): HEL92.1.7, CellTiterGlo, 72 h; for EC50: Homo sapiens, HEL 92.1.7, 72 h, read-out: EC50 (μM) Ab
Method: as §2

[3] = test system: KG-1 Acute myelogenous leukaemia; test: In vitro viability assay, CellTiterGlo; type: cell-based; conditions: for EC50: Homo sapiens, KG-1, 72 h, read-out: EC50 (μM) Ab; for Top Inhibition (%): KG-1, CellTiterGlo, 72 h
Method: as §2

[4] = test system: Z-138 Mantle cell lymphoma; test: In vitro viability assay, CellTiterGlo; type: cell-based; conditions: for EC50: Homo sapiens, Z-138, 72 h, read-out: EC50 (μM) Ab; for Top Inhibition (%): Z-138, CellTiterGlo, 72 h
Method: as §2

[5] = test system: HL-60 Promyelocytic leukaemia; test: In vitro viability assay, CellTiterGlo; type: cell-based; conditions: for Top Inhibition (%): HL-60, CellTiterGlo, 72 h; for EC50: Homo sapiens, HL-60, 72 h, read-out: EC50 (μM) Ab
Method: as §2

[6] = test system: RL Non-Hodgkin's lymphoma; test: In vitro viability assay, CellTiterGlo; type: cell-based; conditions: 72 h; for Top Inhibition (%): CellTiterGlo; for EC50: Homo sapiens, read-out: EC50 (μM) Ab
Method: as §2

## Nc1nc(Cl)nc2c1ncn2[C@H]1CC(OP(=O)(N[C@@H](Cc2ccccc2)C(=O)OCc2ccccc2)Oc2cccc3ccccc23)[C@@H](CO)O1 (stereo partly drawn) [Compound 13, 2-Chloro-2′-deoxyadenosine-3′-[1-naphthyl(benzoxy-L-phenylaninyl)] phosphate]
KG1
  IC50: 1 µM
K562
  IC50: 7 µM
NB4R2
  IC50: 0.8 µM
NB4
  IC50: 0.3 µM
HL-60
  IC50: 1 µM
U937
  IC50: 1 µM

## CCOC(=O)[C@H](C)NP(=O)(Oc1ccccc1)OC1C[C@H](n2cnc3c(N)nc(Cl)nc32)O[C@@H]1CO (stereo partly drawn) [Compound 1, 2-Chloro-2 ‘-deoxyadenosine-3’-[phenyl-(ethoxy-L-alaninyl)]-phosphate]
KG1
  IC50: 1.76 µM
K562
  IC50: > 10 µM
NB4R2
  IC50: 2.52 µM
NB4
  IC50: 0.74 µM
HL-60
  IC50: 2.68 µM
U937
  IC50: 3.06 µM

## CCOC(=O)C(C)(C)NP(=O)(Oc1ccccc1)OC1C[C@H](n2cnc3c(N)nc(Cl)nc32)O[C@@H]1CO (stereo partly drawn) [Compound 11, 2-Chloro-2 ‘-deoxyadenosine-3’-[phenyl-(ethoxy-2,2-dimethylglycinyl)]-phosphate]
NB4
  IC50: > 10 µM
HL-60
  IC50: 0.3 µM

## Nc1nc(Cl)nc2c1ncn2[C@H]1CC(OP(=O)(NCC(=O)OCc2ccccc2)Oc2ccccc2)[C@@H](CO)O1 (stereo partly drawn) [Compound 4, 2-Chloro-2 ‘-deoxyadenosine-3’-[phenyl-(benzoxy-glycinyl)]-phosphate]
KG1
  IC50: > 10 µM
K562
  IC50: > 10 µM
NB4R2
  IC50: 5.56 µM
NB4
  IC50: 8.04 µM
HL-60
  IC50: > 10 µM
U937
  IC50: > 10 µM

## C[C@H](NP(=O)(Oc1ccccc1)OC1C[C@H](n2cnc3c(N)nc(Cl)nc32)O[C@@H]1CO)C(=O)O[C@@H](C)c1ccccc1 (stereo partly drawn) [Compound 17]
NB4
  IC50: 5.5 µM
HL-60
  IC50: 3.2 µM

## CC(C)OC(=O)[C@H](C)NP(=O)(Oc1ccccc1)OC1C[C@H](n2cnc3c(N)nc(Cl)nc32)O[C@@H]1CO (stereo partly drawn) [Compound 15, 2-Chloro-2′-deoxyadenosine-3′-[phenylaso-propoxy-L-alaninyl)] phosphate]
KG1
  IC50: 5 µM
K562
  IC50: > 10 µM
NB4R2
  IC50: 9 µM
NB4
  IC50: 6 µM
HL-60
  IC50: 2 µM
U937
  IC50: 0.4 µM

## CC(C)[C@H](NP(=O)(Oc1ccccc1)OC1C[C@H](n2cnc3c(N)nc(Cl)nc32)O[C@@H]1CO)C(=O)OCc1ccccc1 (stereo partly drawn) [Compound 14, 2-Chloro-2′-deoxyadenosine-3′-[phenyl-(benzoxy-L-valinyl)] phosphate]
KG1
  IC50: 2 µM
K562
  IC50: > 10 µM
NB4R2
  IC50: 2 µM
NB4
  IC50: 0.8 µM
HL-60
  IC50: 3 µM
U937
  IC50: 0.4 µM

## C[C@H](NP(=O)(Oc1ccccc1)OC1C[C@H](n2cnc3c(N)nc(Cl)nc32)O[C@@H]1CO)C(=O)OC1CCCCC1 (stereo partly drawn) [Compound 9, 2-Chloro-2′-deoxyadenosine-3′-[phenyl-(cyclohexoxy-L-alaninyl)] phosphate]
[1]
  EC50: 21 µM
  Top Inhibition (%): 100%
[2]
  Top Inhibition (%): 97.2%
  EC50: 0.044 µM
[3]
  EC50: 0.8 µM
  Top Inhibition (%): 96.9%
[4]
  EC50: 0.051 µM
  Top Inhibition (%): 99.9%
[5]
  Top Inhibition (%): 87.7%
  EC50: 0.13 µM
[6]
  Top Inhibition (%): 89.9%
  EC50: 0.14 µM

## CCC(C)OC(=O)[C@H](C)NP(=O)(Oc1ccccc1)OC1C[C@H](n2cnc3c(N)nc(Cl)nc32)O[C@@H]1CO (stereo partly drawn) [Compound 16, 2-Chloro-2′-deoxyadenosine-3′-[phenyl-(2-butoxy-L-alaninyl)] phosphate]
KG1
  IC50: 7 µM
K562
  IC50: > 10 µM
NB4R2
  IC50: > 10 µM
NB4
  IC50: 9 µM
HL-60
  IC50: 8 µM
U937
  IC50: 2 µM

## CCCCCOC(=O)[C@H](CC(C)C)NP(=O)(Oc1cccc2ccccc12)OC1C[C@H](n2cnc3c(N)nc(Cl)nc32)O[C@@H]1CO (stereo partly drawn) [Compound 7, 2-Chloro-2′-deoxyadenosine-3′-[1-naphthyl-(pentoxy-L-leucinyl)] phosphate]
[1]
  EC50: 5.45 µM
  Top Inhibition (%): 103%
[2]
  Top Inhibition (%): 98.6%
  EC50: 0.07 µM
[3]
  EC50: 1.5 µM
  Top Inhibition (%): 98.8%
[4]
  EC50: 1.07 µM
  Top Inhibition (%): 101%
[5]
  Top Inhibition (%): 98%
  EC50: 0.27 µM
[6]
  Top Inhibition (%): 100%
  EC50: 0.5 µM

## C[C@H](NP(=O)(Oc1cccc2ccccc12)OC1C[C@H](n2cnc3c(N)nc(Cl)nc32)O[C@@H]1CO)C(=O)OC1CCCCC1 (stereo partly drawn) [Compound 8, 2-Chloro-2 ‘-deoxyadenosine-3’-[1-naphthyl-(cyclohexoxy-L-alaninyl)] phosphate]
[1]
  EC50: 7.97 µM
  Top Inhibition (%): 101%
[2]
  Top Inhibition (%): 98.3%
  EC50: 0.18 µM
[3]
  EC50: 2.75 µM
  Top Inhibition (%): 98.4%
[4]
  EC50: 3.5 µM
  Top Inhibition (%): 100%
[5]
  Top Inhibition (%): 96%
  EC50: 0.46 µM
[6]
  Top Inhibition (%): 98.1%
  EC50: 0.85 µM

## CC(C)C[C@H](NP(=O)(Oc1ccccc1)OC1C[C@H](n2cnc3c(N)nc(Cl)nc32)O[C@@H]1CO)C(=O)OCc1ccccc1 (stereo partly drawn) [Compound 5, 2-Chloro-2 ‘-deoxyadenosine-3’-[phenyl-(benzoxy-L-leucinyl)]-phosphate]
KG1
  IC50: 5.04 µM
K562
  IC50: > 10 µM
NB4R2
  IC50: 1.57 µM
NB4
  IC50: 2.56 µM
HL-60
  IC50: 4.45 µM
U937
  IC50: > 10 µM

## C[C@H](NP(=O)(Oc1ccccc1)OC1C[C@H](n2cnc3c(N)nc(Cl)nc32)O[C@@H]1CO)C(=O)OC(C)(C)C (stereo partly drawn) [Compound 2, 2-Chloro-2 ‘-deoxyadenosine-3’-[phenyl-(tert-butoxy-L-alaninyl)]-phosphate]
KG1
  IC50: 2 µM
K562
  IC50: > 10 µM
NB4R2
  IC50: > 10 µM
NB4
  IC50: > 10 µM
HL-60
  IC50: > 10 µM
U937
  IC50: 6 µM

## C[C@H](NP(=O)(Oc1ccccc1)OC1C[C@H](n2cnc3c(N)nc(Cl)nc32)O[C@@H]1CO)C(=O)OCC(C)(C)C (stereo partly drawn) [Compound 10, 2-Chloro-2′-deoxyadenosine-3′-[phenyl-(2,2-dimethylpropoxy-L-alaninyl)] phosphate]
[1]
  EC50: 22 µM
  Top Inhibition (%): 99.2%
NB4
  IC50: > 10 µM
HL-60
  IC50: 5.3 µM
[2]
  Top Inhibition (%): 97.2%
  EC50: 0.042 µM
[3]
  EC50: 0.6 µM
  Top Inhibition (%): 95%
[4]
  EC50: 0.047 µM
  Top Inhibition (%): 100%
[5]
  Top Inhibition (%): 87.7%
  EC50: 0.12 µM
[6]
  Top Inhibition (%): 89.8%
  EC50: 0.15 µM

## Nc1nc(Cl)nc2c1ncn2[C@H]1CC(OP(=O)(N[C@@H](Cc2ccccc2)C(=O)OCc2ccccc2)Oc2ccccc2)[C@@H](CO)O1 (stereo partly drawn) [Compound 12, 2-Chloro-2 ‘-deoxyadenosine-3’-[phenyl-(benzoxy-L-phenylalaninyl)] phosphate]
KG1
  IC50: 4 µM
K562
  IC50: 10 µM
NB4R2
  IC50: 2 µM
NB4
  IC50: 1 µM
HL-60
  IC50: 2 µM
U937
  IC50: 2 µM

## C[C@@H](NP(=O)(Oc1ccccc1)OC1C[C@H](n2cnc3c(N)nc(Cl)nc32)O[C@@H]1CO)C(=O)OCc1ccccc1 (stereo partly drawn) [Compound 3, 2-Chloro-2 ‘-deoxyadenosine-3’-[phenyl-(benzoxy-D-alaninyl)]-phosphate]
KG1
  IC50: > 10 µM
K562
  IC50: > 10 µM
NB4R2
  IC50: > 10 µM
NB4
  IC50: 7.82 µM
HL-60
  IC50: > 10 µM
U937
  IC50: 7.52 µM
